Biological target: human EP3 receptor (Homo sapiens (Human), UniProt P43115)
Test: EP3 Radioligand SPA Binding Assay
Conditions: [3H]-PGE2 displacement, Millipore EP3 Chem1 membranes; geometric mean Ki, calculated from IC50 by Cheng-Prusoff
Description: EP3 Radioligand SPA Binding Assay
Compound affinity was expressed as a […], defined as the concentration of compound required to decrease [^3H] PGE2 binding by 50% for a specific membrane batch at a given concentration of radioligand.
Test compounds were half log serially diluted in 100% DMSO (J. T. Baker #922401). 1 μL of each compound was added to appropriate wells of a 384-well plate (Matrix Cat #4322). Unlabeled PGE2 (Tocris Cat #2296) at a final concentration of 1 μM was used to determine non-specific binding. 1 μL of 100% DMSO (J. T. Baker #922401) was used to determine total binding. Millipore EP3 Chem1 membranes (prepared in-house from cell paste derived from the Millipore ChemiSCREEN™ Human Recombinant EP3 Prostanoid Receptor Calcium-Optimized Stable Cell Line (Millipore Cat #HTS092C. http://www.millipore.com/catalogue/item/hts092c)) were thawed and diluted in binding buffer (50 mM Hepes pH 7.4 (Lonza Cat #17-737), 5 mM MgCl2 (Sigma-M1028), and 0.1% BSA (Sigma A-7409)) to a final concentration of 1 μg/25 μL. 25 μL of diluted membranes were added to prepared compound plates. WGA coated PVT SPA Beads (Perkin Elmer Cat #RPNQ0060) were diluted in binding buffer to a concentration of 4 μg/ul, and 25 μL of the SPA bead mixture was then added to each well for a final assay concentration of 100 μg/well. [^3H]-PGE2 (Perkin Elmer Cat #NET428) was diluted in binding buffer to a concentration of […], and 25 μL was added to all wells for a final assay concentration of 1.125 nM. Plates were incubated for 30 minutes at r.t. (approximately 25° C.) with shaking. Radioactivity associated with each well was measured after a 10 hour incubation using a Wallac Trilux MicroBeta plate-based scintillation counter and a normalized protocol at 1 minute read/well. The Kd for [^3H]-PGE2 was determined by carrying out saturation binding, with data analysis by non-linear regression, fit to a one-site hyperbola (Graph Pad Prism). IC50 determinations were made from competition curves, analyzed with a proprietary curve fitting program (SIGHTS) and a 4-parameter logistic dose response equation. Ki values were calculated from IC50 values, using the Cheng-Prusoff equation.
Results are reported as geometric mean Ki values.

Sequence of human EP3 receptor (P43115 whole entry): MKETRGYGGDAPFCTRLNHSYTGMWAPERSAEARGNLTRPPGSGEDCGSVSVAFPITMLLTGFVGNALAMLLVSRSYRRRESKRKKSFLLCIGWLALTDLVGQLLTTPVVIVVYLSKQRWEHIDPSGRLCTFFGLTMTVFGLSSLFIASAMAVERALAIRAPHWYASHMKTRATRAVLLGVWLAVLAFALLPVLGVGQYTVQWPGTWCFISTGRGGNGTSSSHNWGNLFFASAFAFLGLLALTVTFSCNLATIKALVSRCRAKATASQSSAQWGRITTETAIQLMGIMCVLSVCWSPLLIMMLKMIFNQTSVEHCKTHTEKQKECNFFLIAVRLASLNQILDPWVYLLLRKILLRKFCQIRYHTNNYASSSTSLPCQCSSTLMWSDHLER

| Structure (SMILES) | Ki [nM] |
| --- | --- |
| Cn1ccc2cc(-c3ccc([C@@]4(C)CCCNC4=O)c(=O)[nH]3)ccc21 [Example 5, (R)-6-(1-methyl-1H-indol-5-yl)-3-(3-methyl-2-oxopiperidin-3-yl)pyridin-2(1H)-one] | 12.2 |
| Cn1ccc2cc(-c3ccc([C@@]4(C)CCNC4=O)c(=O)[nH]3)ccc21 [Example 6, (R)-6-(1-methyl-1H-indol-5-yl)-3-(3-methyl-2-oxopyrrolidin-3-yl)pyridin-2(1H)-one] | 46 |
| Cn1ncc2c(Cl)cc(-c3ccc([C@@]4(C)CCNC4=O)c(=O)[nH]3)cc21 [Example 8, (R)-6-(4-chloro-1-methyl-1H-indazol-6-yl)-3-(3-methyl-2-oxopyrrolidin-3-yl)pyridin-2(1H)-one] | 14.2 |
| CCn1ccc2ccc(-c3ccc([C@@]4(C)CCNC4=O)c(=O)[nH]3)cc21 [Example 10, (R)-6-(1-ethyl-1H-indol-6-yl)-3-(3-methyl-2-oxopyrrolidin-3-yl)pyridin-2(1H)-one] | 19.9 |
| Cc1cc(-c2ccc([C@@]3(C)CCCNC3=O)c(=O)[nH]2)cc2c1cnn2C [Example 12, (R)-6-(1,4-dimethyl-1H-indazol-6-yl)-3-(3-methyl-2-oxopiperidin-3-yl)pyridin-2(1H)-one] | 25 |
| C[C@]1(c2ccc(-c3cc(F)c4[nH]nc(C5CC5)c4c3)[nH]c2=O)CCCNC1=O [Example 14, (R)-6-(3-cyclopropyl-7-fluoro-1H-indazol-5-yl)-3-(3-methyl-2-oxopiperidin-3-yl)pyridin-2(1H)-one] | 29.2 |

Continued, values first:

| Ki [nM] | Structure (SMILES) |
| --- | --- |
| 2 | CCn1ncc2c(F)cc(-c3ccc([C@@]4(C)CCCNC4=O)c(=O)[nH]3)cc21 [Example 1, (R)-6-(1-ethyl-4-fluoro-1H-indazol-6-yl)-3-(3-methyl-2-oxopiperidin-3-yl)pyridin-2(1H)-one] |
| 3.6 | Cn1ncc2c(Cl)cc(-c3ccc([C@@]4(C)CCCNC4=O)c(=O)[nH]3)cc21 [Example 2, (R)-6-(4-chloro-1-methyl-1H-indazol-6-yl)-3-(3-methyl-2-oxopiperidin-3-yl)pyridin-2(1H)-one] |
| 9.5 | CCn1ncc2c(C)cc(-c3ccc([C@@]4(C)CCCNC4=O)c(=O)[nH]3)cc21 [Example 3, (R)-6-(1-ethyl-4-methyl-1H-indazol-6-yl)-3-(3-methyl-2-oxopiperidin-3-yl)pyridin-2(1H)-one] |
| 11.2 | Cn1ccc2ccc(-c3ccc([C@@]4(C)CCCNC4=O)c(=O)[nH]3)cc21 [Example 4, (R)-6-(1-methyl-1H-indol-6-yl)-3-(3-methyl-2-oxopiperidin-3-yl)pyridin-2(1H)-one] |
| 7.8 | Cn1cnc2cc(-c3ccc([C@@]4(C)CCCNC4=O)c(=O)[nH]3)cc(Cl)c21 [Example 7, (R)-6-(7-chloro-1-methyl-1H-benzo[d]imidazol-5-yl)-3-(3-methyl-2-oxopiperidin-3-yl)pyridin-2(1H)-one] |
| 11.9 | Cn1ccc2cc(-c3ccc([C@@]4(C)CCNC4=O)c(=O)[nH]3)cc(F)c21 [Example 9, (R)-6-(7-fluoro-1-methyl-1H-indol-5-yl)-3-(3-methyl-2-oxopyrrolidin-3-yl)pyridin-2(1H)-one] |

Source: patent US9278953B2, “Antagonists of prostaglandin EP3 receptor” (Pfizer Inc., priority 2013, dated 2016)
